Patent US9540361B2, “N-substituted azetidine derivatives” (Merck Sharp & Dohme B.V., priority 2010, dated 2017)

Key:
MCF-7H cells = assay: 7-day in vitro proliferation assay in tamoxifen-resistant MCF-7H breast cancer cells (methyl-3H-thymidine incorporation); assay type: cell-based, human; conditions: Homo sapiens, MCF7, 168 h; efficacy (fraction of maximal response relative to E2) in MCF-7H proliferation; read-out: MCF7 ia
Description: To what extent compounds are capable of stimulating proliferation in ER-positive, tamoxifen-resistant breast cancer cells is tested in a 7-day in vitro proliferation assay using MCF-7H cells. More specifically, this in vitro bioassay is used to determine the efficacy (fraction of maximal response), pEC50, and relative potency of the compound to induce proliferation by comparing the data for this compound with those of the reference compound 17β-estradiol (E2) in the same test.
A more detailed description of the method used is as follows.
Cell culture: The human epithelial breast cancer cell line MCF-7H (origin: Hubrecht Laboratory, Utrecht, The Netherlands) was routinely maintained in complete medium which is a 1:1 mixture of Ham's F12 medium and Dulbecco's Modified Eagle Medium (DMEM; Invitrogen, Carlsbad, USA) without phenol red and enriched with 5% fetal calf serum (FCS; Hyclone, Utah, USA), 100 μg/ml streptomycin and 100 units/ml penicillin adapted to contain:
Cells were grown in 80 cm^2 culture flasks (Nunc, Roskilde, Denmark) and kept in an atmosphere of 5% CO2-95% air at 37 degrees Celsius. Cells were subcultured when they reached about 80-90% confluence, resulting in one passage a week. Subculturing includes detaching the cells using trypsin/EDTA and diluting the cell suspension 10 times.
Methyl-^3H-thymidine incorporation assay: MCF-7H cells were starved overnight in assay medium containing 5% charcoal-treated (CT) bovine calf serum (BCS; Hyclone) instead of FCS and a final concentration of 1.0 μg/ml bovine insulin, the day before plating. Cells were plated in assay medium containing 5% CT BCS, in white 24-wells plates (Perkin Elmer, Shelton, USA), at a density of 7.5×10^3 cells per well, each well containing 630 μL assay medium. Cells were allowed to attach and spread for 24 h before stimulation with reference and/or test compound(s). After a stimulation period of 7 days, 0.25 μCi/well of methyl-^3H-thymidine (GE Healthcare Limited, Buckinghamshire, UK) was added per well. Cultures were maintained in an atmosphere of 5% CO2-95% air at 37 degrees Celsius. After overnight incubation, excess methyl-^3H-thymidine was aspirated and the cells were washed with phosphate-buffered saline (PBS). After 1 h of incubation with 1 ml scintillation fluid Microscint-20 (Perkin Elmer), radioactivity was measured in a Packard TOP-count NXT microplate scintillation counter (Perkin Elmer).

[1] = target: T1, human estrogen receptor α (hERα) (Homo sapiens, UniProt P03372); assay: antagonistic activity in CHO cells co-transfected with hERα, rat oxytocin promoter and luciferase reporter gene; assay type: cell-based; conditions: antagonism of 17β-estradiol-induced transactivation, CHO-hERα-RO-LUC; read-out: ERα pIC50 (converted)
T1 sequence (P03372 1-595): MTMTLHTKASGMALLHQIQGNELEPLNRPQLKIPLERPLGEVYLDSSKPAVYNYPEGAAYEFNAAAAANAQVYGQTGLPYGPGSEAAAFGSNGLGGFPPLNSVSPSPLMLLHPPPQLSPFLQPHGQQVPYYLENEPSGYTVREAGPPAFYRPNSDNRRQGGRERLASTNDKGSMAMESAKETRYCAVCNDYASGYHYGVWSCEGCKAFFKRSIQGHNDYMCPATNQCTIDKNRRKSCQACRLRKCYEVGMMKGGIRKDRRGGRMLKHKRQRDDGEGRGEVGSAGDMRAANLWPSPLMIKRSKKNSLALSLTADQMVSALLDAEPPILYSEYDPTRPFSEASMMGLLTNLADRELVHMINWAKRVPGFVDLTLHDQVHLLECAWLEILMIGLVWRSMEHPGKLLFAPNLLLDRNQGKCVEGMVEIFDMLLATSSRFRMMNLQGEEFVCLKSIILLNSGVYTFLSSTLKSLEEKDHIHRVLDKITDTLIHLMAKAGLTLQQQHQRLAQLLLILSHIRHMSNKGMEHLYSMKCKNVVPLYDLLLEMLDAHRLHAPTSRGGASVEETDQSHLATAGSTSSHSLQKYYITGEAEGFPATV
How it was run: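 Recombinant CHO cells stably carrying hERα, rat oxytocin promoter and luciferase reporter, with receptor activated by 17β-estradiol. Antagonist efficacy given as maximal inhibition relative to that of the reference anti-estrogen ICI 164,384.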

estrogen receptor alpha = target: T2, estrogen receptor alpha (Homo sapiens, UniProt P03372); assay: ERα downregulation assay in T47D breast cancer cells (ERα ELISA); assay type: cell-based; conditions: downregulation of ERα relative to fulvestrant (100%), 1E-5 M, 24 hours, negative = upregulation
T2 construct: endogenous in cells; host or cells: T47D human breast cancer cells (ATCC)
T2 sequence (P03372 1-595): T1 sequence (P03372 1-595)
How it was run: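 T47D cells were treated with 1E-5 M test compound for 24 hours, then lysed in the well. ERα protein content was measured by ELISA. Efficacy is given as fraction of maximal response relative to fulvestrant, defined as 100% downregulation.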

[2] = Rapid Rat PK after oral administration; assay type: in vivo, rats (Rattus Norvegicus); conditions: 20 umol/kg, plasma, oral 20 μmol/kg; for AUC: AUC(0-6h), read-out: RRat AUC; for Cmax: read-out: RRat Cmax
Description: In the context of the present invention with “orally bioavailable” is meant that compounds, when dosed orally to a rat show oral exposure as determined by quantification of compound plasma levels in that rat. Typically, compounds are dosed orally at 20 μmol/kg, as described in Example 14 hereinbelow. Oral exposure is determined by measuring plasma levels over the time range of 0-6 h after dosing and is expressed by AUC(0-6h).
This test was used to determine the pharmacokinetic parameters (AUC(0-6h), Cmax and Tmax) after oral administration of compounds in male (intact or castrated) or female (intact or ovariectomized) rats (Rattus Norvegicus).
After oral administration of a compound at 20 μmol/kg, blood was collected at various time points (0.5, 1, 2, 3, 4 and 6 hours after compound administration) via the tail vein. Plasma samples were pooled per time point, after which the concentration was determined in plasma by means of LC-MS. Pharmacokinetic parameters (AUC(0-6h), Cmax and Tmax) were derived from the obtained concentration versus time curves using the non-compartmental analysis module in Animals! or WinNonlin.

| IC50 [1] [nM] | DR (%) (estrogen receptor alpha) | AUC [2] [µM·h] | Cmax [2] [nM] | Compound | Emax (MCF-7H cells) [%] |
| --- | --- | --- | --- | --- | --- |
| 31.6 | 75 | 1.97 | 450 | CCCN1CC(Oc2ccc(C(=C(CC)c3ccccc3)c3ccccc3)cc2)C1.O=C(O)C(F)(F)F [compound 6u, 3-(4-(1,2-diphenylbut-1-enyl)phenoxy)-1-propylazetidine 2,2,2-trifluoroacetate] | 8 |
| 0.251 | 57 | 2.05 | 570 | CCCN1CC(Oc2ccc(-c3c(-c4ccccc4Cl)noc3-c3ccc(O)cc3)cc2)C1 [compound 6g, 4-(4-(4-(N-propylazetidin-3-yloxy)phenyl)-3-(2-chlorophenyl)isoxazol-5-yl)-phenol] | 2 |
| 0.398 | 58 | 1.03 | 350 | Cl.Oc1ccc(-c2onc(-c3ccccc3Cl)c2-c2ccc(OC3CN(CC4CCC4)C3)cc2)cc1 [compound 7z, 4-(3-(2-chlorophenyl)-4-(4-(1-(cyclobutylmethyl)azetidin-3-yloxy)phenyl)-isoxazol-5-yl)phenol hydrochloride] |  |
| 0.316 | 32 | 1.55 | 520 | CC(C)CN1CC(Oc2ccc(-c3c(-c4ccccc4Cl)noc3-c3ccc(O)cc3)cc2)C1.Cl [compound 7w, 4-(3-(2-chlorophenyl)-4-(4-(1-isobutylazetidin-3-yloxy)phenyl)isoxazol-5-yl)-phenol hydrochloride] |  |
